Legend:
[1] = tested on: cardiomyopathic mice with missense LMNA mutation; assay: Mouse model carrying a missense LMNA mutation and developing a dilated cardiomyopathy; format: in vivo; details: oral treatment, mouse model with missense LMNA mutation
[2] = tested on: cardiomyopathic mice with missense LMNA mutation; details: oral NAC treatment; cited from earlier work
[3] = tested on: postoperative atrial fibrillation; details: cited from earlier work
[4] = tested on: heart-failing hypertensive rats; details: oral NAC treatment; cited from earlier work
[5] = tested on: mouse model of human hypertrophic cardiomyopathy; details: oral NAC treatment; cited from earlier work

CC(=O)N[C@@H](CS)C(=O)O [NAC, N-acetylcysteine]
heart structure and function [1]: significantly improved heart structure and function
cardiac structure and function [2]: improves cardiac structure and function
incidence of postoperative atrial fibrillation (AF) ([3]; intravenous infusion for 1 h before and 48 h after cardiac surgery, Ozaydin et al. 2008): decreased the incidence of postoperative atrial fibrillation
post-operative atrial fibrillation ([3]; oral NAC treatment, patients): prevents post-operative atrial fibrillation
cardiac structure and function [4]: improves cardiac structure and function
established hypertrophy [5]: reverses established hypertrophy

Source: patent publication US20110144205A1, “Blood Glutathione as a Biomarker for Screening Asymptomatic Patients at Risk for Heart Failure” (INSERM (Institut National de la Recherche Medicale), priority 2008, published 2011)
